From article PMC12502564, “Evaluation of LLM-generated peptide as foundation template for discovery of effective encrypted AMPs against clinical superbugs” (Microbiology Spectrum, 2025)
No end group written: not given here.

Assays:
A. baumannii ATCC19606 = assay type: cell-based, Acinetobacter baumannii
Experimental: (§1) The MIC of all peptides was determined using the microdilution broth method in a 96-well plate. Peptides were dissolved in the DMSO with an initial concentration of 12,800 µg mL^−1. And cells of eight strains were separately suspended in the MHB at a density of approximately 10^5 CFU mL^−1. In the first column of the 96-well plate, 16 µL of peptide and 184 µL of MHB were added to each well to achieve a final concentration of 1,024 µg mL^−1. One-hundred microliters of MHB was added to each of the remaining wells. Then the first column of liquid was mixed well and diluted to the 12th column using the twofold dilution method. One-hundred microliters of prepared bacterial solution was added to all wells, and the 96-well plate was incubated at 37°C for 18–24 h. The MIC was defined as the concentration of the peptide in the well just preceding the first well showing visible turbidity. All experiments were performed in triplicate to ensure reliability.

E. coli ATCC25922 = assay type: cell-based, Escherichia coli
Experimental: as §1

HEK293 cells = assay type: cell-based
Experimental: Cytotoxicity of AMPs was determined using the Cell Counting Kit-8. HEK293 cells, bought from Procell (Wuhan, China), were inoculated in 96-well flat-bottom plates according to 5,000 cells/well in cell culture medium. After 24-h incubation at 37°C with 5% CO2 in atmosphere, medium was replaced with fresh medium and incubated with antimicrobial peptide solutions at various concentrations for 48 h. Cell viability was monitored by adding CCK-8 solution and measuring OD450 after 4 h. Zero-well and control-well were set during this experimental process. All experiments were performed with three independent replicates. The cell survival rate was calculated by the following formula, and the CC50 value of each AMPs was calculated by online tools: https://www.aatbio.com/tools/ic50-calculator. (2) Cell survival rate (%)=OD(AMP)− OD(zero)/OD(control)− OD(zero)×100%

CRAB 2210186 = assay: Thigh infection mouse model; assay type: in vivo, BALB/c mice; conditions: neutropenic mice, ~1 × 10^6 CFU in thigh, i.p. at 1, 3, 5, 7 h post-infection (PL-15 10 × MIC, 100 µL; polymyxin B 20,000–25,000 U kg^−1 day^−1), n = 8
Source text: The WHO has classified CRAB as a “Critical Priority” pathogen in its Priority Pathogens List, recognizing it as a predominant causative agent of hospital-acquired infections ([2]). This classification reflects CRAB’s global dissemination, high mortality rates, and extreme resistance profiles. Given this critical situation, a thigh infection model was employed to evaluate the in vivo therapeutic efficacy of PL-15 against CRAB. To establish the mouse thigh infection model, mice were pre-treated intraperitoneally with cyclophosphamide 4 days and 1 day prior to bacterial inoculation to induce neutropenia, administered at doses of 150 mg kg^−1 and 100 mg kg^−1, respectively ([51]). Each mouse was then injected with approximately 10^6 colony-forming unit (CFU) of CRAB in the thigh tissue, followed by four intraperitoneal injections of PL-15, polymyxin B, or phosphate-buffered saline (PBS) within 24 h of infection (Fig. 3a).
All animal experiments were performed according to the “Principles of Laboratory Animal Care” (NIH publication No. 86-23, revised 1985) and approved by the Animal Care and Use Committee of Shandong University (LL20240622, Jinan, China). Five-week-old male BALB/c mice were purchased from Beijing Vital River Laboratory Animal Technology Co., Ltd. (Beijing, China) and kept under a 12-hour light/12-hour dark cycle, humidity of 50%, and temperature of 22°C in standard specific pathogen-free individually vented cages.
To establish the mouse thigh infection model, mice were injected intraperitoneally with cyclophosphamide 4 d and 1 d before bacterial administration, at concentrations of 150 and 100 mg kg^−1, respectively, to induce neutropenia ([51]). CRAB 2210186 cells were suspended in sterile PBS, adjusted to a concentration of ~1 × 10^6 CFU per infection site and injected into the right thighs of eight mice per treatment group. PL-15 (10 × MIC, 100 µL), polymyxin B (20,000–25,000 U kg^−1 day^−1) or PBS were administered intraperitoneally at 1, 3, 5, and 7 h post-infection. Mice were euthanized 24 h after infection, and the thigh tissues were aseptically collected, weighed, homogenized, serially diluted in PBS, and plated onto solid MCA. The CFU of CRAB 2210186 per thigh was calculated by plating dilutions of the thigh homogenates (0.25 g of thigh tissue in 10 mL sterile PBS) on agar plates and counting colonies.

MRSA 2210187 = conditions: 10% fetal bovine serum, room temperature, 1–6 h, then MIC assay, triplicate
Experimental: For serum sensitivity experiments, the peptide to be tested was incubated in 10% fetal bovine serum at room temperature for 1–6 h. After deactivation, the MICs of peptides against CRAB 2210186 and MRSA 2210187 were measured using the MIC assay. All experiments were performed in triplicate to ensure reliability.

For WLKRILKWIGNKLKW [PL-15], the MIC (A. baumannii ATCC19606) was “lower than 11 µg mL^−1”, the MIC (E. coli ATCC25922) was “lower than 11 µg mL^−1” and the “log2CC50 (50% cell viability)” value (HEK293 cells) was ≥ 3. The “reduction of bacterial load compared to the PBS control group” value (CRAB 2210186; 24 h) was “two orders of magnitude”, the “bacteria eradicated in the thigh tissue within 24 h” value (CRAB 2210186) was “over 97%” and the “fold change in MIC after incubation in serum” value (MRSA 2210187) was “maximum twofold increase”.
